The record followed here is patent US9096584B2, “Compounds useful as inhibitors of ATR kinase” (Vertex Pharmaceuticals Incorporated, priority 2010, dated 2015).

Some results are limits rather than exact numbers.

The target of one assay is T1, full-length ATR (Homo sapiens, UniProt Q13535).
T1 construct: Assays were carried out at 25° C. in the presence of 5 nM full-length ATR
Nature of the assay: ATR Inhibition Assay (radioactive-phosphate incorporation). Format: biochemical. As to the method: Compounds were screened for their ability to inhibit ATR kinase using a radioactive-phosphate incorporation assay. Assays were carried out in a mixture of 50 mM Tris/HCl (pH 7.5), 10 mM MgCl2 and 1 mM DTT. Final substrate concentrations were 10 μM [γ-33P]ATP (3mCi 33P ATP/mmol ATP, Perkin Elmer) and 800 μM target peptide ([…] (SEQ ID NO: 1)).
Assays were carried out at 25° C. in the presence of 5 nM full-length ATR. An assay stock buffer solution was prepared containing all of the reagents listed above, with the exception of ATP and the test compound of interest. 13.5 μL of the stock solution was placed in a 96 well plate followed by addition of 2 μL of DMSO stock containing serial dilutions of the test compound (typically starting from a final concentration of 15 μM with 3-fold serial dilutions) in duplicate (final DMSO concentration 7%). The plate was pre-incubated for 10 minutes at 25° C. and the reaction initiated by addition of 15 μL [γ-33P]ATP (final concentration 10 μM).
The reaction was stopped after […] by the addition of 30 μL 0.1M phosphoric acid containing 2 mM ATP. A multiscreen phosphocellulose filter 96-well plate (Millipore, Cat no. MAPHN0B50) was pretreated with 100 μL 0.2M phosphoric acid prior to the addition of 45 μL of the stopped assay mixture. The plate was washed with 5×200 μL 0.2M phosphoric acid. After drying, 100 μL Optiphase ‘SuperMix’ liquid scintillation cocktail (Perkin Elmer) was added to the well prior to scintillation counting (1450 Microbeta Liquid Scintillation Counter, Wallac).
After removing mean background values for all of the data points, Ki(app) data were calculated from non-linear regression analysis of the initial rate data using the Prism software package (GraphPad Prism version 3.0cx for Macintosh, GraphPad Software, San Diego Calif., USA).
Below is a chart showing the ATR Inhibition Ki values of compounds of the disclosure.

In assay [1] the test system is HCT116 colorectal cancer cells. Nature of the assay: Cisplatin Sensitization Assay (96 h cell viability MTS). Format: cell-based. The note with it: concentration of compound required to reduce the IC50 of Cisplatin alone by at least 3-fold, 96 h MTS. Here is the method:
Compounds can be screened for their ability to sensitize HCT116 colorectal cancer cells to Cisplatin using a 96 h cell viability (MTS) assay. […] Compounds and Cisplatin are then both added simultaneously to the cell media in 2-fold serial dilutions from a top final concentration of 10 μM as a full matrix of concentrations in a final cell volume of 200 μl, and the cells are then incubated at 37° C. in 5% CO2. After 96 h, 40 μl of MTS reagent (Promega G358a) is added to each well and the cells are incubated for 1 h at 37° C. in 5% CO2.

T1 sequence (Q13535 whole entry): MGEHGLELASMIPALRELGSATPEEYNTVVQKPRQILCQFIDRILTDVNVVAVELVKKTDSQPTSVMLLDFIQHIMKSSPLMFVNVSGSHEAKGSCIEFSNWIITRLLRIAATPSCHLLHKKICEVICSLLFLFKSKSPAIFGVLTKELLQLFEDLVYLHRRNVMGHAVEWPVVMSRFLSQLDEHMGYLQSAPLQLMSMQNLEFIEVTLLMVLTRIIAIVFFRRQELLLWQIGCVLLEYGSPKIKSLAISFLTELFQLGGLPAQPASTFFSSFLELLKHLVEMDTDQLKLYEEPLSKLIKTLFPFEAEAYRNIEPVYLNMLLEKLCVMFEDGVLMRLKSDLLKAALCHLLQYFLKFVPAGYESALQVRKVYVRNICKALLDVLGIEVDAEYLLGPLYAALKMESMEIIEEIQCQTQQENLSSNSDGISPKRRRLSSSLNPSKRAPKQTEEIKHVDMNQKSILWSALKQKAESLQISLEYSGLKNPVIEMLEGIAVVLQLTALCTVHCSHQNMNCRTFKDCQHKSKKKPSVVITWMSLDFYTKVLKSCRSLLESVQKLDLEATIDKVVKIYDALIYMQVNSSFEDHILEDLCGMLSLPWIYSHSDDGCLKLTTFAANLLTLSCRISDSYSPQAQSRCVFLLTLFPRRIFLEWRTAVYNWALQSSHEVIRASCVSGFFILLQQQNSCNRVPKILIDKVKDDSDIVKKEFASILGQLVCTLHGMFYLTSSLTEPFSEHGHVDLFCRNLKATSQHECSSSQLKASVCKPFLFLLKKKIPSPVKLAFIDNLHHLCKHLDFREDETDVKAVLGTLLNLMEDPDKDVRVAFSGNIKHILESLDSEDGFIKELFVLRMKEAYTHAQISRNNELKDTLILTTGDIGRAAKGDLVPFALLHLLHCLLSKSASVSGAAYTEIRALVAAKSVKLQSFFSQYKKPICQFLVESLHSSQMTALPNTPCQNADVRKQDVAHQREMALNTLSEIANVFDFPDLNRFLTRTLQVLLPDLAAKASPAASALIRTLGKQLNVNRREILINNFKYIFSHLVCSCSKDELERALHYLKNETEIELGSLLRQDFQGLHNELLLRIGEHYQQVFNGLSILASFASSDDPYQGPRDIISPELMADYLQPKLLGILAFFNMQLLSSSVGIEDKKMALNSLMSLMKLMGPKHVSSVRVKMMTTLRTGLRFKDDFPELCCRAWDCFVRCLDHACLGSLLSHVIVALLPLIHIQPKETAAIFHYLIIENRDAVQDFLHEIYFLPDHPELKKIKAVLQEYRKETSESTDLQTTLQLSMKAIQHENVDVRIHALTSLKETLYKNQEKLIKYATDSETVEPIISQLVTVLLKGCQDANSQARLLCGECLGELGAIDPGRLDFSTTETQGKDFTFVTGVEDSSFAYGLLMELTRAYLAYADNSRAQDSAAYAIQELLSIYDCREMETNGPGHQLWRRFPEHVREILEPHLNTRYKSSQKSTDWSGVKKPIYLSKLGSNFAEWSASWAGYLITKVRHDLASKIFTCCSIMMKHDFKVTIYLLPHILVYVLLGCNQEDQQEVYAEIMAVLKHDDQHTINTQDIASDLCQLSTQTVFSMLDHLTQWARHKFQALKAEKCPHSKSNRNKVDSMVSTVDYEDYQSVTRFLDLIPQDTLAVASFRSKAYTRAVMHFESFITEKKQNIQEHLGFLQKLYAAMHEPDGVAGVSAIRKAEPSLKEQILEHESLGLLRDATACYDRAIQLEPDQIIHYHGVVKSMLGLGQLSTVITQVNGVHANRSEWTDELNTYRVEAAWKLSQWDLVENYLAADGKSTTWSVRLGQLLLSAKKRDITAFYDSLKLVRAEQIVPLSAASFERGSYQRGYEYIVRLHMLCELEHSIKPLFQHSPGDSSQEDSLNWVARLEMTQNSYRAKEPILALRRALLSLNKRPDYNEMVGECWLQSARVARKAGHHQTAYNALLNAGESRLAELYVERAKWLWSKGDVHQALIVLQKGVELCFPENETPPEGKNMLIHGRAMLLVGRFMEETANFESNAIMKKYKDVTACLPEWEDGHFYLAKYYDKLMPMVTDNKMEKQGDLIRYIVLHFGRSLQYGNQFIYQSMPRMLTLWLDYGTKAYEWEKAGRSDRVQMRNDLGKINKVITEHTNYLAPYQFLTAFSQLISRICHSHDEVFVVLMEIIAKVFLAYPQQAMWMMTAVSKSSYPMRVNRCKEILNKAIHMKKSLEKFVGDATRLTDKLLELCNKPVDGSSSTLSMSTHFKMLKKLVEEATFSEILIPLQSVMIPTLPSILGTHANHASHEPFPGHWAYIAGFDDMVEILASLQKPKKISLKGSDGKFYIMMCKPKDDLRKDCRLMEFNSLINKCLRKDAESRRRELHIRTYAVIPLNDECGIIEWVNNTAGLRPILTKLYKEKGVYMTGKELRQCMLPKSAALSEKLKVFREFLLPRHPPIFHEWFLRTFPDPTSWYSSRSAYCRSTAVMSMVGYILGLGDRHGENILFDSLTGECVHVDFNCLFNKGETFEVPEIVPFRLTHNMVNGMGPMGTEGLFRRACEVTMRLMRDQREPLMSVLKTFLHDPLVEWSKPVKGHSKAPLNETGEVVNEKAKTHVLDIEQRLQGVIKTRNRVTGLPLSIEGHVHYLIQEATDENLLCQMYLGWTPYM

For the compound `CNCc1ccc(-c2nnc(-c3cc(-c4ccc(S(=O)(=O)[C@@H]5CCOC5)cc4)cnc3N)o2)cc1` [III-1, 3-[5-[4-(Methylaminomethyl)phenyl]-1,3,4-oxadiazol-2-yl]-5-[4-[(3R)-tetrahydrofuran-3-yl]sulfonylphenyl]pyridin-2-amine], the Ki at full-length ATR is at most 10 nM. `Nc1ncc(-c2ccc(C(=O)N3CCCNCC3)cc2)cc1-c1nnc(-c2ccccc2)o1` [III-2, [4-[6-Amino-5-(5-phenyl-1,3,4-oxadiazol-2-yl)-3-pyridyl]phenyl]-(1,4-diazepan-1-yl)methanone]: on full-length ATR, the Ki lay in the range of 10 to 100 nM. The same measure, in the same setting: the result for `CS(=O)(=O)c1ccc(-c2cnc(N)c(-c3nnc(-c4ccccc4)o3)c2)cc1` [III-3, 5-(4-(Methylsulfonyl)phenyl)-3-(5-phenyl-1,3,4-oxadiazol-2-yl)pyridin-2-amine] reads 10 to 100 nM; that for `CCS(=O)(=O)N1CC=C(c2cnc(N)c(-c3nnc(-c4ccccc4)o3)c2)CC1` [III-4, 5-(1-Ethylsulfonyl-3,6-dihydro-2H-pyridin-4-yl)-3-(5-phenyl-1,3,4-oxadiazol-2-yl)pyridin-2-amine], 10 to 100 nM. Same read-out and setting: the same measure for `CNCc1ccc(-c2nnc(-c3cc(-c4cnc(S(=O)(=O)C(C)C)cn4)cnc3N)o2)cc1` [III-5, 5-(5-Isopropylsulfonylpyrazin-2-yl)-3-[5-[4-(methylaminomethyl)phenyl]-1,3,4-oxadiazol-2-yl]pyridin-2-amine]: at most 10 nM. Still for that read-out and setting: the same measure for `Cc1ccc(-c2cc(-c3cc(-c4ccc(S(=O)(=O)C(C)C)cn4)cnc3N)on2)cc1` [III-6, 5-(5-Isopropylsulfonyl-2-pyridyl)-3-[3-(p-tolyl)isoxazol-5-yl]pyridin-2-amine]: 10 to 100 nM. As for `Nc1ncc(-c2cccnc2)cc1C(=O)Nc1ccccc1` [III-7, 2-Amino-N-phenyl-5-(3-pyridyl)pyridine-3-carboxamide], the inhibition constant Ki on full-length ATR was 100 to 5000 nM. On to `CNCc1ccc(-c2cc(-c3cc(-c4ccc(S(=O)(=O)C(C)C)cn4)cnc3N)on2)c(F)c1` [III-8, 3-[3-[2-Fluoro-4-(methylaminomethyl)phenyl]isoxazol-5-yl]-5-(5-isopropylsulfonyl-2-pyridyl)pyridin-2-amine], for which the Ki at full-length ATR was at most 10 nM. For the same compound, the “CP3 Shift” value in assay [1] was “.234 µM”. Consider `CNCc1ccc(-c2nnc(-c3cc(-c4ccsc4)cnc3N)o2)cc1` [III-9, 3-[5-[4-(Methylaminomethyl)phenyl]-1,3,4-oxadiazol-2-yl]-5-(3-thienyl)pyridin-2-amine], for which, on full-length ATR, the Ki was in the range of 10 to 100 nM.

For the compound `CNCc1ccc(-c2nnc(-c3cc(-c4ccc(S(=O)(=O)C(C)C)cn4)cnc3N)o2)cc1` [III-10, 5-(5-Isopropylsulfonyl-2-pyridyl)-3-[5-[4-(methylaminomethyl)phenyl]-1,3,4-oxadiazol-2-yl]pyridin-2-amine], the Ki at full-length ATR was at most 10 nM. Besides, the “CP3 Shift” value in assay [1] was “.078 µM”. The like results for `CNCc1ccc(-c2nnc(-c3cc(-c4ccc(S(=O)(=O)C(C)C)cc4)cnc3N)o2)cc1` [III-11, 5-(4-Isopropylsulfonylphenyl)-3-[5-[4-(methylaminomethyl)phenyl]-1,3,4-oxadiazol-2-yl]pyridin-2-amine] were, in that order, at most 10 nM and “.156 µM”. Consider `CNCc1ccc(-c2cc(-c3cc(-c4ccc(S(=O)(=O)C(C)C)cn4)cnc3N)on2)cc1` [III-12, 5-(5-Isopropylsulfonyl-2-pyridyl)-3-[3-[4-(methylaminomethyl)phenyl]isoxazol-5-yl]pyridin-2-amine], for which, at full-length ATR, the Ki was at most 10 nM. Further, the “CP3 Shift” value in assay [1] is “.156 µM”.
